{"source": "patent US20140335532A1", "about": "“HUMAN SKIN SAMPLE METHODS AND MODELS FOR VALIDATING HYPOTHESES FOR MECHANISMS DRIVING SKIN PIGMENTATION” (The Procter & Gamble Company, priority 2011, published 2014)", "key": {"9 epidermal tone genes [1]": {"test_system": "9 epidermal tone genes", "experiment": "Endogenously driven ex-vivo human skin tissue, transcription of epidermal tone genes vs untreated control", "format": "cell-based", "details": "for # Genes (out of 9) with p ≦ 0.1: endogenously driven tissue sample, 37° C. and 70% humidity, epidermal genes regulated vs untreated control, 2-10 experiments each", "protocol": "Referring to FIGS. 11 to 15, examples are shown for the regulation of the 9 epidermal tone genes against an untreated control in an endogenously driven ex-vivo tissue system at 37° C. and 70% humidity for niacinamide, hexamidine, N-Acetyl glucosamine, kojic acid, tranexamic acid, and undecylenoyl phenylalanine (2-10 experiments each). […] For instance, out of the 9 epidermal genes, at least one compound (Hexamidine) regulated 9 genes (with a statistical significance of p<0.1 or better) while two compounds regulated 5 or fewer genes (with a p<0.1 or better). Table 1 below summarizes the number of epidermal genes regulated by certain materials in an endogenously driven tissue sample with a statistical significance of p≦0.1.\nCulturing involved setting up culture plates: putting 2.5 ml of media or treatment into each well of a 6-well tissue plate, adding one Millicell culture insert to each well, and putting 100 μl of 1×DMEM on the center of each insert membrane. Squares were selected randomly placed into each of the inserts (one piece of skin per insert), on top of the media on the membrane. The plates were stored at either 33° C. (though an additional non-limiting example would be 37° C. depending on the experiment endpoint). As a control, baseline tissue measurements were collected from excess waste (cryogenics were used for snap freezing). Baseline biopsy collection involved two 4 mm punches for MTT; One 4 mm punch was snap frozen in OCT for fresh histology; One 4 mm punch was fixed in 10% formalin and sent out for paraffin embedding. PCR baseline was also be taken with six 4 mm punches snap frozen in liquid nitrogen.\nCulture and treatment of the model comprised replicates of n=5 (though replicates of additional quantities may be used such as n=6). Media Dosing of skin involved solubilizing used in appropriate solvents (including PBS, Media, alcohol, and DMSO; in using DMSO, the final concentration in the plate was restricted to 0.01%). Appropriate dilutions were made for treatment: 15 ml of media were required per plate per day for treatment, with 2.5 ml of media required per well under the cell culture insert. Media was pre-warmed and changed every day during the experiment.\nSkin was topically dosed. To do so, formulation for a compound of interest was obtained. Variation was minimized by having a vehicle that was as close to test formula as possible (making sure glycerin concentration was the same, determining if there was a vitamin package in the formula, determining if there was niacimamide; all of these were the same between the vehicle control formula and the test formula) (in ideal embodiments, the only difference is the unknown test compound). The skin was treated using a positive displacement pipette with 20 ul of formulation. A sterile cotton swab was used after application to spread and rub in the formula. Media was changed every day. The media was aspirated and replaced with fresh warmed media at a level of 2.5 ml per well.\nFor cryopreparation and extraction the following equipment was obtained and prepared: 2 ml round bottom tubes were prepared with 1 ml of TRIZOL as was a 5 mm stainless steel bead for each sample; a dry ice bucket was obtained and liquid nitrogen was placed in the bucket. Biopsy punches were maintained on dry ice, and samples remained frozen. Cryobags and covaris cryoprep were used in freeze fracturing of samples. To freeze fracture the samples, biopsies were placed in a cryo bag (2 per sample) and dipped in liquid nitrogen, then placed in cryoprep (setting 4). The sample bag was taken out and dipped back into nitrogen. A flattened disk was removed and placed into corresponding 2 ml tubes with TRIZOL. The disk was kept frozen in the TRIZOL. The tube was closed and snap frozen, and the whole tube was placed in liquid nitrogen. After repeating the process with all the samples, samples were placed into boxes and stored at −80 until the next step. […]"}, "9 epidermal tone genes [2]": {"test_system": "9 epidermal tone genes", "experiment": "Stem Cell Factor/Endothelin 1 driven ex-vivo human skin tissue, transcription of epidermal tone genes vs untreated control", "format": "cell-based", "details": "Stem Cell Factor/Endothelin 1 driven tissue sample; 37° C. and 70% humidity; out of 9 epidermal genes; 2-10 experiments each", "protocol": "Referring to FIGS. 19 to 23, examples (of 2-10 experiments each) are shown for the regulation of the 9 epidermal tone genes against an untreated control in ex-vivo tissue driven by the combination of Stem Cell Factor and Endothelin at 37° C. and 70% humidity for niacinamide, hexamidine, N-Acetyl glucosamine, kojic acid, tranexamic acid, and undecylenoyl phenylalanine. […] For instance, out of the 9 epidermal genes, at least one compound (undecylenoyl phenylalanine) regulated 5 genes (with a statistical significance of p<0.1 or better) while two compounds regulated 2 or fewer genes (with a p<0.1 or better). Table 2 below summarizes the number of epidermal genes regulated by certain materials in a Stem Cell Factor/Endothelin 1 driven tissue sample with a statistical significance of p≦0.1.\nIn example embodiments, tone is driven by application of stem cell factor and/or endothelin (with skin preparation, culturing, and mRNA processing being completed as previously described). In an example embodiment, skin samples are placed within 6-well plates, with 2.5 ml of media per well. A concentration of eighty nanograms per milliliter of stem cell factor as well as eighty nanograms per milliliter of endothelin was applied to tissue in the wells, with the media being refreshed daily. The culture was maintained for seven days. Inhibitors of tone-related genes were applied; hexamidine and undecylenoyl phenylalanine were applied topically and daily in vehicles at 0.1% and 0.25%, respectively."}, "[3]": {"test_system": "rat melanoma line known to produce melanin", "experiment": "Total melanin assay in melanoma cell line", "format": "cell-based", "details": "rat melanoma cell cultures", "protocol": "(§1) The ex-vivo screening method has provided identification of agents consistent with in-vitro studies and which have proven positive clinically. One such example is hexyldecanol. […] For example, total melanin assays were performed using a rat melanoma line known to produce melanin. […] Therefore, promising tone agents such as hexyldecanol identified from the in-vitro model and the ex-vivo model have been tested in clinical settings."}, "tone genes": {"test_system": "tone genes", "experiment": "Human Ex-vivo Pre-Clinical Model, fold regulation of tone genes by clinical formulations", "format": "cell-based", "details": "FIGS. 25a and 25b", "protocol": "FIGS. 25a and 25b show two respective tables showing ex-vivo model fold regulation changes indicating significant down-regulation by clinical formulations in the Human Ex-vivo Pre-Clinical Model.\nas §1"}, "[4]": {"test_system": "facial skin pigmentation (spots, melanin evenness)", "experiment": "9-week clinical study, randomized, double-blind, vehicle-controlled, split-face", "format": "in vivo, human", "details": "9-week study", "text": "For example, hexyldecanol was compared to vehicle controls and positive controls (5% Niacinamide+1% undecylenoyl phenylalanine) through a 9-week period. Specifically the trial included a 9-week clinical study with a randomized, double-blind, round robin, vehicle-controlled, split-face design, including one week normalization period whereby 330 subjects received test product."}, "tone genes of interest": {"test_system": "tone genes of interest", "experiment": "Ex-vivo tissue culture exposed to compounds known to stimulate the pigmentation pathway, tone gene regulation", "format": "cell-based, human", "details": "p≦0.1, minimum of 2-10 experiments each, FIG. 16"}}}
{"molecule": "N=C(N)c1ccc(OCCCCCCOc2ccc(C(=N)N)cc2)cc1", "note": "[Hexamidine, hexamidine]", "values": [{"measurement": "# Genes (out of 9) with p ≦ 0.1", "setting": "9 epidermal tone genes [1]", "value": 9}, {"measurement": "# of Genes with p ≦ 0.1", "setting": "9 epidermal tone genes [2]", "value": 4}]}
{"molecule": "CCCCCCCCC(CO)CCCCCC", "note": "(centres unmarked) [Hexyldecanol, hexyldecanol]", "values": [{"measurement": "Total melanin produced as compared to controls", "setting": "[3]", "value": "decreased"}, {"measurement": "Ex-vivo model gene regulation", "setting": "tone genes", "value": "down-regulation"}, {"measurement": "Overall clinical outcome vs vehicle", "setting": "[4]; 330 subjects, significant if p<0.10 (1-sided) vs. vehicle", "value": "statistically better than vehicle controls"}, {"measurement": "Melanin evenness", "setting": "[4]; versus the vehicle control", "value": "significantly different from controls"}, {"measurement": "Spot area fraction (total area of spots per face)", "setting": "[4]; versus vehicle control group", "value": "significantly different from controls"}]}
{"molecule": "O=c1cc(CO)occ1O", "note": "[Kojic Acid, kojic acid]", "values": [{"measurement": "# Genes (out of 9) with p ≦ 0.1", "setting": "9 epidermal tone genes [1]", "value": 5}, {"measurement": "# of Genes with p ≦ 0.1", "setting": "9 epidermal tone genes [2]", "value": 2}]}
{"molecule": "CC(=O)N[C@H]1C(O)O[C@H](CO)[C@@H](O)[C@@H]1O", "note": "(some centres unmarked) [NAG, N-Acetyl glucosamine]", "values": [{"measurement": "# Genes (out of 9) with p ≦ 0.1", "setting": "9 epidermal tone genes [1]", "value": 6}, {"measurement": "# of Genes with p ≦ 0.1", "setting": "9 epidermal tone genes [2]", "value": 1}]}
{"molecule": "NC(=O)c1cccnc1", "note": "[Niacinamide, niacinamide]", "values": [{"measurement": "Down-regulation of tone genes by donor Fitzpatrick type", "setting": "9 epidermal tone genes [1]; 5% niacinamide, Fitzpatrick V donor vs two Fitzpatrick III donors, FIG. 1", "value": "more challenging to down-regulate"}, {"measurement": "# Genes (out of 9) with p ≦ 0.1", "setting": "9 epidermal tone genes [1]", "value": 7}, {"measurement": "# of Genes with p ≦ 0.1", "setting": "9 epidermal tone genes [2]", "value": 3}]}
{"molecule": "C=CCCCCCCCCC(=O)N[C@@H](Cc1ccccc1)C(=O)O", "note": "[Undecylenoyl phenylalanine, undecylenoyl phenylalanine]", "values": [{"measurement": "# Genes (out of 9) with p ≦ 0.1", "setting": "9 epidermal tone genes [1]", "value": 3}, {"measurement": "# of Genes with p ≦ 0.1", "setting": "9 epidermal tone genes [2]", "value": 5}]}
{"molecule": "Stem Cell Factor: compound known to stimulate the pigmentation pathway; paracrine agent", "values": [{"measurement": "Regulation of tone genes of interest", "setting": "tone genes of interest", "value": "up regulate one or more tone genes of interest"}]}
{"molecule": "tranexamic acid", "values": [{"measurement": "# Genes (out of 9) with p ≦ 0.1", "setting": "9 epidermal tone genes [1]", "value": 7}, {"measurement": "# of Genes with p ≦ 0.1", "setting": "9 epidermal tone genes [2]", "value": 3}]}
{"molecule": "α-MSH", "values": [{"measurement": "Regulation of tone genes of interest", "setting": "tone genes of interest", "value": "up regulate one or more tone genes of interest"}]}
